{"source": "patent US20230365602A1", "about": "“COMPOUND FOR USE IN THE TREATMENT OF PROTOZOAL DISEASES AND PROCESS FOR PRODUCTION OF SAID COMPOUND” (QUADREL S.R.L., priority 2020, published 2023)", "key": {"[1]": {"target": "HDAC8 (Homo sapiens, UniProt Q9BY41)", "sequence (Q9BY41 whole entry, species assumed)": "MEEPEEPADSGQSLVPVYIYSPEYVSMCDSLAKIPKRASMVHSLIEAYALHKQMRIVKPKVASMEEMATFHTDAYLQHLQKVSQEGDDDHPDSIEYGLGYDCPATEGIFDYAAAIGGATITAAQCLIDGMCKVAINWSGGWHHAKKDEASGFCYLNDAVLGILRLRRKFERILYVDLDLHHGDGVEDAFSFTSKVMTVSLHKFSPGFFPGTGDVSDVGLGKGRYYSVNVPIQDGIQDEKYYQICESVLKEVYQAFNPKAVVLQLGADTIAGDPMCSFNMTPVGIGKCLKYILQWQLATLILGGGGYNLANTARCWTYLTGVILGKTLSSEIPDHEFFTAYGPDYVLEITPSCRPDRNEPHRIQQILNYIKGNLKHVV", "assay": "HDAC8 activity inhibition", "type": "biochemical", "settings": "100 μM"}, "[2]": {"test_system": "Leishmania infantum", "assay": "Efficacy in mice infected with Leishmania infantum, 21-day treatment, limiting dilution assay", "type": "in vivo, BALB/c mice", "method": "The rationale for the choice of four doses was to enable dose dependent information in activity and toxicity. The wait period of 15 days after treatment end enabled the follow up of reappearance of infection and also the determination of the time dependent compound elimination. […] Three days after the last treatment the mice were euthanized and parasite burden (log number of parasites/mg of organ) was evaluated by limiting dilution assay, essentially as described in Tavares. J. et al (Methods Mol Biol, 2019; 1971:289-301), in the spleen (FIG. 2B) and in the liver (FIG. 2C). Data represent the mean±SD, *p<0.05, **p<0.01 (One way ANOVA with Dunnett's test) in comparison with the untreated group."}, "[3]": {"test_system": "A549", "assay": "Early toxicity: A549 cell growth", "type": "cell-based", "settings": "10 μM"}, "[4]": {"test_system": "L. amazonensis intracellular amastigotes", "assay": "Anti-leishmanial activity, L. amazonensis intracellular amastigotes", "type": "cell-based", "settings": "Leishmania amazonensis", "excerpt": "(§1) The in vitro antiparasitic activity of compound 5-cyclopentadecylpentyl (2-(trimethylammonio)ethyl) phosphate (19) against L. infantum (2 species), L. amazonensis, L. donovani and L. major is presented in Table 3, as well as the toxicity against the human monocytic cell Line THP1 and PMA-differentiated THP-1 cells."}, "[5]": {"target": "CYP3A4 (Homo sapiens, UniProt P08684)", "sequence (P08684 whole entry)": "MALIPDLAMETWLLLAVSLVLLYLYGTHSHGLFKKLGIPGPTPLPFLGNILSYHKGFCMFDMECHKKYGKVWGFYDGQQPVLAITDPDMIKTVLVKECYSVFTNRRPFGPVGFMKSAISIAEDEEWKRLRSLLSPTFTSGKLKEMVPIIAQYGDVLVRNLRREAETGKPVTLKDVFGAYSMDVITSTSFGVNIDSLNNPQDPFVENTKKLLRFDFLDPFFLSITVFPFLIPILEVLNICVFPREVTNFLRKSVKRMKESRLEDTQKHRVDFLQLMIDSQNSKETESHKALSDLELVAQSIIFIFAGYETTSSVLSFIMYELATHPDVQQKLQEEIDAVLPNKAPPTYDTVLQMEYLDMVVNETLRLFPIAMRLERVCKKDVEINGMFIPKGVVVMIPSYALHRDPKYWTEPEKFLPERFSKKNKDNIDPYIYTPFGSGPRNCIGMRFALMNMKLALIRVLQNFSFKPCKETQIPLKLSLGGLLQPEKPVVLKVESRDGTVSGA", "assay": "Early toxicity: CYP3A4 inhibition", "type": "in vitro ADME", "settings": "human, 10 μM"}, "[6]": {"assay": "Snapshot pharmacokinetics in plasma after oral gavage", "type": "in vivo, mice", "settings": "for AUC(0-inf) / Cmax / half-life / Tmax: mouse, plasma; for Tmax: read-out: tmax", "method": "Pharmacology of 5-cyclopentadecylpentyl (2-(trimethylammonio)ethyl) phosphate (19) in mice.\nBlood samples were collected from the tail vein at 0, 0.5, 0.75, 1, 3, 24 and 72 hours into heparinized tubes. Moreover, biodistribution of the molecule, 72h after administration, was determined in several organs of the treated mice, namely brain, liver, spleen, kidney, heart and bone marrow. […] J Chromatogr B, 865: 55-62) by liquid chromatography mass spectrometry (LC-MS/MS)."}, "[7]": {"test_system": "L. infantum intracellular amastigotes LEM235", "assay": "Anti-leishmanial activity, L. infantum LEM235 intracellular amastigotes", "type": "cell-based", "excerpt": "as §1"}, "[8]": {"test_system": "L. major SASKH intracellular amastigotes", "assay": "Anti-leishmanial activity, L. major intracellular amastigotes", "type": "cell-based", "settings": "Leishmania major; read-out: L. major SASKH intracellular amastigotes IC50 ± SEM", "excerpt": "as §1"}, "[9]": {"test_system": "mitochondria", "assay": "Early toxicity: mitochondrial toxicity", "type": "cell-based", "settings": "10 μM"}, "[10]": {"assay": "Maximum tolerated dose and dose range finding, 7 days oral gavage", "settings": "for average weight loss at the end of the experiment: 7 days", "excerpt": "The primary objective of the dose range finding study is to establish the maximum tolerated dose (MTD) as determined by parameters such as clinical signs and reductions in body weight and food consumption, and to provide the data for appropriate dose selection in subsequent regulatory toxicology studies."}, "[11]": {"assay": "Cytotoxicity, Human Monocytic Cell Line THP1", "type": "cell-based", "settings": "human monocytic cell line THP1, read-out: Cytotoxicity-Human Monocytic Cell Line THP1 CC50 ± SD", "excerpt": "as §1"}, "[12]": {"test_system": "Human Erythrocytes", "assay": "In vitro Hemolytic Activity in Human Erythrocytes", "type": "cell-based", "method": "The assay, which is an indicator of the toxic insult of a compound on the erythrocyte membrane is performed essentially as described in (Calogeropoulou T. et al., J. Med. Chem. 2008, 51, 897-908). […] [table]"}, "[13]": {"test_system": "T. brucei brucei Lister 427 expressing red-shifted luciferase", "assay": "Efficacy in HAT mice model (acute T. b. brucei infection), live imaging", "type": "in vivo, BALB/c mice", "excerpt": "(B) Overall evolution of parasite burden assessed by live imaging using IVIS Lumina LT (Perkin Elmer) during and after treatment. T. b. brucei Lister 427 expressing red-shifted luciferase was used in these experiments. DX is the day post treatment. (C) Quantification of bioluminescent signal plotted as average radiance (p/s/cm^2/sr) during and after treatment.\nIn addition, 5-cyclopentadecylpentyl (2-(trimethylammonio) ethyl) phosphate (19) was effective per os in vivo against T. brucei acute model of infection and also against the long lasting chronic infection model. […] The daily treatment with 50 mg/kg for 13 days lead to a significant decrease of infection and increase in animal survival. […] Altogether 5-cyclopentadecylpentyl (2-(trimethylammonio) ethyl) phosphate (19) is effective in the BALB/c infection model for T. brucei being a possible therapeutical option both for HAT stage I and II.\nT. brucei brucei Lister 427 expressing red-shifted luciferase was used in these experiments as described for L. infantum in vivo infection in (Graça N A et al., Antimicrob Agents Chemother. 2016 Mar. 25; 60(4):2532-6). The overall evolution of parasite burden assessed by live imaging using IVIS Lumina LT (Perkin Elmer) during and after treatment. […] To confirm this possibility, the treated mice immune system was suppressed with cyclophosphamide. […] The advantage over pentamidine is the oral administration of compound 19 versus ip administration of pentamidine."}, "[14]": {"assay": "Apparent solubility by nephelometry", "type": "physicochemical", "settings": "kinetic from dmso stock"}}, "note": "“Also recorded” adds a separate entry of the source. Where two headings read alike, the source gives them in different places."}
{"compound": "C[N+](C)(C)CCOP(=O)([O-])OCCCCCC1CCCCCCCCCCCCCC1", "note": "[Compound 19, 5-cyclopentadecylpentyl (2-(trimethylammonio)ethyl) phosphate]", "values": [{"measurement": "effect on HDACr", "setting": "[1]", "value": "not considered significant"}, {"measurement": "average reduction of parasite burden, spleen", "setting": "[2]; compound 19 2.5 mg/kg every other day for 21 days", "value": 98, "unit": "%"}, {"measurement": "parasite burden, spleen and liver", "setting": "[2]; compound 19 every other day for 21 days, 20, 10, 5, 2.5 mg/kg, except 2.5 mg/kg in the spleen", "value": "maintained parasite burden under the detection limit"}, {"measurement": "% cell growth A549", "setting": "[3]; 100% = not cytotoxic, 0% = cytostatic, −100% = cytotoxic", "value": "108.28 ± 0.09", "unit": "%"}, {"measurement": "Avg % Cell growth A549", "setting": "[3]; Table 5", "value": "108.28 ± 0.09 (10 μM) %"}, {"measurement": "IC50", "setting": "[4]", "value": 5.4, "unit": "µM"}, {"measurement": "inhibition at 10 µM", "setting": "[5]; Table 5, read-out: Avg % inhibition CYP3A4", "value": "-17.6 ± 8.89", "unit": "%"}, {"measurement": "inhibition at 10 µM", "setting": "[5]; mean ± SD, Table 4a, read-out: % inhibition CYP3A4", "value": "17.6 ± 8.89", "unit": "%"}, {"measurement": "Cmax in plasma relative to the EC50 for L. infantum in vitro", "setting": "[6]; 20 mg/kg oral gavage", "value": 10, "unit": "fold"}, {"measurement": "AUC(0-inf)", "setting": "[6]; BALB/c (Compound 19), NMRI (miltefosine), healthy mice, 20 mg/kg oral gavage, Table 10, read-out: AUC (0-∞)", "value": "967 ± 471", "unit": "µg·h/mL"}, {"measurement": "AUC(0-inf)", "setting": "[6]; BALB/c (Compound 19), NMRI (miltefosine), healthy mice, 20 mg/kg oral gavage, Table 10, read-out: AUC (0-∞) (μM h/mL)", "value": 2090, "unit": "µM·h"}, {"measurement": "Cmax", "setting": "[6]; BALB/c (Compound 19), NMRI (miltefosine), healthy mice, 20 mg/kg oral gavage, Table 10, read-out: Cmax", "value": 33.4, "unit": "µM"}, {"measurement": "Cmax", "setting": "[6]; BALB/c (Compound 19), NMRI (miltefosine), healthy mice, 20 mg/kg oral gavage, Table 10, read-out: Cmax (μg/mL)", "value": "15.4 ± 9.3", "unit": "µg/mL"}, {"measurement": "half-life", "setting": "[6]; BALB/c (Compound 19), NMRI (miltefosine), healthy mice, 20 mg/kg oral gavage, Table 10, read-out: t1/2 (converted)", "value": "17.4 ± 4.2", "unit": "h"}, {"measurement": "Tmax", "setting": "[6]; BALB/c (Compound 19), NMRI (miltefosine), healthy mice, 20 mg/kg oral gavage, Table 10", "value": 24, "unit": "h"}, {"measurement": "Ke (h − 1)", "setting": "[6]; healthy BALB/c mice, 20 mg/kg gavage, Table 13", "value": 0.049, "unit": "h − 1"}, {"measurement": "Ke", "setting": "[6]; healthy mice, 20 mg/kg oral gavage, Table 10", "value": 0.049, "unit": "h⁻¹"}, {"measurement": "AUC(0-inf)", "setting": "[6]; po, healthy BALB/c mice, 20 mg/kg gavage, Table 13, read-out: AUC (0-∞)", "value": "967 ± 471", "unit": "µg·h/mL"}, {"measurement": "AUC(0-inf)", "setting": "[6]; po, healthy BALB/c mice, 20 mg/kg gavage, Table 13, read-out: AUC (0-∞) (μM h/mL)", "value": 2090, "unit": "µM·h"}, {"measurement": "Cmax", "setting": "[6]; po, healthy BALB/c mice, 20 mg/kg gavage, Table 13, read-out: Cmax", "value": 33.4, "unit": "µM"}, {"measurement": "Cmax", "setting": "[6]; po, healthy BALB/c mice, 20 mg/kg gavage, Table 13, read-out: Cmax (μg/mL)", "value": "15.4 ± 9.3", "unit": "µg/mL"}, {"measurement": "Tmax", "setting": "[6]; po, healthy BALB/c mice, 20 mg/kg gavage, Table 13", "value": 24, "unit": "h"}, {"measurement": "half-life", "setting": "[6]; po, healthy BALB/c mice, 20 mg/kg gavage, Table 13, read-out: t½ (converted)", "value": "17.4 ± 4.2", "unit": "h"}, {"measurement": "IC50", "setting": "[7]; Leishmania infantum, read-out: L. infantum intracellular amastigotes LEM235 IC50 ± SEM", "value": "0.7 ± 0.4", "unit": "µM"}, {"measurement": "Selectivity Index CC50/IC50", "setting": "[7]; THP1 CC50 / IC50 L. infantum LEM235", "value": 714}, {"measurement": "IC50", "setting": "[8]", "value": "15.5 ± 1.5", "unit": "µM"}, {"measurement": "% mitochondrial toxicity", "setting": "[9]; 100% mitotoxic, 0% not mitotoxic", "value": "−3.22 ± 5.44", "unit": "%"}, {"measurement": "Ang % Toxicity Mitochondria", "setting": "[9]; Table 5", "value": "−3.22 ± 5.44 (10 μM) %"}, {"measurement": "average weight loss at the end of the experiment", "setting": "[10]; 50 mg/kg daily oral gavage", "value": "7±8", "unit": "%"}, {"measurement": "day from which weight loss was significant", "setting": "[10]; 100 mg/kg daily oral gavage", "value": 5, "unit": "days"}, {"measurement": "average weight loss at the end of the experiment", "setting": "[10]; 100 mg/kg daily oral gavage", "value": "11±4", "unit": "%"}, {"measurement": "MTD at 7 days", "setting": "[10]; BALB/c, mouse, in vivo, oral", "value": 100, "unit": "mg/kg"}, {"measurement": "CC50", "setting": "[11]", "value": "> 500", "unit": "µM"}, {"measurement": "percentage of hemolytic activity lower than miltefosine", "setting": "[12]; 100 μM", "value": "approximately 11 fold"}, {"measurement": "Hemolysis at 100 μM (%)", "setting": "[12]; 100 μM, human erythrocytes", "value": 8.7, "unit": "%"}, {"measurement": "Hemolysis, HC50", "setting": "[12]; human erythrocytes", "value": ">100", "unit": "µM"}, {"measurement": "infection outcome (words)", "setting": "[13]; 50 mg/kg/day PO, 7 consecutive days", "value": "eliminated the infection; also recorded: full clearance of infection"}, {"measurement": "relapse after treatment", "setting": "[13]; 3 weeks after treatment, also after cyclophosphamide immune suppression", "value": "no relapse was detected"}, {"measurement": "solubility", "setting": "[14]; FaSSIF, pH 6.5, fassif, read-out: Solubility in FaSSIF (pH = 6.5)", "value": "> 100", "unit": "µM"}, {"measurement": "solubility", "setting": "[14]; FeSSIF, pH 5, fessif, read-out: Solubility in FeSSIF (pH = 5)", "value": "> 100", "unit": "µM"}, {"measurement": "solubility", "setting": "[14]; PBS, pH 7.4, aqueous buffer, read-out: Solubility in PBS (pH = 7.4)", "value": "< 10", "unit": "µM"}, {"measurement": "solubility", "setting": "[14]; simulated gastric fluid (SGF), simulated gastric fluid, SGF, pH 1.6, read-out: Solubility in SGF (pH = 1.6)", "value": 12.5, "unit": "µM"}, {"measurement": "solubility", "setting": "[14]; water, H2O, read-out: Solubility in H2O", "value": "< 10", "unit": "µM"}]}
